In ChEMBL document CHEMBL1152566, “Synthesis and activity of azaterphenyl diamidines against Trypanosoma brucei rhodesiense and Plasmodium falciparum” (Bioorg Med Chem, 2009):
Calls of active or inactive are those of the source. No cut-off for these calls is given here.

Tests used:
Plasmodium falciparum = assay: Antiplasmodial activity against Plasmodium falciparum K1; format: functional, organism-based
[1] = tested on: Trypanosoma brucei rhodesiense; assay: Antitrypanosomal activity against Trypanosoma brucei rhodesiense STIB900 infected in NMRI mouse assessed as survival days at 5 mg/kg, ip; format: functional; conditions: route intraperitoneal
[2] = tested on: Trypanosoma brucei rhodesiense; conditions: dose 20 mg/kg; route intraperitoneal
Description: Antitrypanosomal activity against Trypanosoma brucei rhodesiense STIB900 infected in NMRI mouse assessed as survival days at 20 mg/kg, ip

[3] = tested on: Trypanosoma brucei rhodesiense; assay: Antitrypanosomal activity against Trypanosoma brucei rhodesiense STIB900; format: functional, organism-based
[4] = tested on: Trypanosoma brucei rhodesiense; assay: Antitrypanosomal activity against Trypanosoma brucei rhodesiense STIB900 infected in NMRI mouse assessed as survival at 5 mg/kg, ip; format: functional, organism-based; parameters: dose 5 mg/kg
[5] = tested on: Trypanosoma brucei rhodesiense; assay: Antitrypanosomal activity against Trypanosoma brucei rhodesiense STIB900 infected in NMRI mouse assessed as survival at 20 mg/kg, ip; format: functional, organism-based; parameters: dose 20 mg/kg

Row | SMILES | IC50 (Plasmodium falciparum) [nM] | Survival [1] [days] | Survival [2] [days] | IC50 [3] [nM] | Activity [4] | Activity [5]
1 | N=C(N)c1ccc(-c2ccc(-c3ccc(C(=N)N)cn3)cn2)cc1 | 2.5 | >60 | – | – | – | –
2 | N=C(N)c1ccc(-c2ccc(-c3ccc(C(=N)N)cc3)o2)cc1 [FURAMIDINE] | – | >46 | >57.75 | – | – | –
3 | N=C(N)c1ccc(-c2ccc(-c3cnc(C(=N)N)nc3)cc2)cc1 | 0.6 | >46.25 | – | 4 | – | –
4 | N=C(N)c1ccc(-c2ccc(-c3ccc(C(=N)N)cc3)nn2)cc1 | 1.3 | >49.25 | – | 14 | – | –
5 | N=C(N)c1ccc(-c2ccc(-c3cnc(C(=N)N)cn3)cn2)cc1 | 5.7 | >31.75 | – | – | – | –
6 | N=C(N)c1ccc(-c2ccc(-c3ccc(C(=N)N)nc3)cc2)cn1 | – | >51.5 | – | – | inactive | –
7 | N=C(N)c1ccc(-c2ccc(-c3ccc(C(=N)N)cn3)cc2)cc1 | 1.3 | >56 | – | – | – | –
8 | N=C(N)c1ccc(-c2cnc(-c3ccc(C(=N)N)cc3)cn2)cc1 | 0.4 | 36.5 | – | 18 | inactive | –
9 | N=C(N)c1ccc(-c2cnc(-c3ccc(C(=N)N)cc3)nc2)cc1 | – | 23.5 | – | – | inactive | –
10 | N=C(N)c1ccc(-c2ccc(-c3ccc(C(=N)N)cn3)cc2)nc1 | 10.1 | >60 | – | 47 | – | –
11 | N=C(N)c1ccc(-c2ccc(-c3ccc(C(=N)N)cc3)nc2)cc1 | 10 | >42 | – | 2 | – | –
12 | N=C(N)c1ccc(-c2ccc(-c3ccc(C(=N)N)cn3)o2)cc1 | – | >54.5 | >60 | – | – | Active
13 | N=C(N)c1ccc(-c2ccc(-c3cnc(C(=N)N)nc3)cn2)cc1 | 1.5 | >43.25 | – | 12 | inactive | –
14 | N=C(N)c1ccc(-c2ccc(-c3ccc(C(=N)N)nc3)cn2)cc1 | 1.1 | >60 | – | 6 | – | –
15 | N=C(N)c1ccc(-c2ccc(-c3ccc(C(=N)N)nc3)cc2)cc1 | – | >48.75 | – | – | inactive | –
16 | N=C(N)c1ccc(-c2ccc(-c3ccc(C(=N)N)cc3)cc2)cc1 | 1.4 | – | >47.75 | 5 | – | –
17 | N=C(N)c1ncc(-c2ccc(-c3cnc(C(=N)N)nc3)cc2)cn1 | 0.6 | >43.25 | – | 6 | – | –
